This note sets out measurements from patent US20080300298A1, “Honokiol Derivates For the Treatment of Proliferative Disorders” (priority 2005, published 2008).

Series [1] deals with KBM-5 cells. Conditions: KBM-5, 72 h, with TNF, paclitaxel or doxorubicin.
Protocol: KBM-5 cells (5000 cells/0.1 ml) were incubated at 37° C. with TNF, paclitaxel or doxorubicin in the presence and absence of 5 mM honokiol as indicated for 72 h, and the viable cells were assayed using the MTT reagent. The results are expressed as mean cytotoxicity ±SD from triplicate cultures.
Cytotoxicity assay Cytotoxicity was assayed by the modified tetrazolium salt 3-(4-5-dimethylthilozol-2-yl)-2-5-diphenyl-tetrazolium bromide (MTT) assay as described previously (Bharti, A. C., et al. 2004 J. Biol. Chem. 279:6065-6076).
The effect of honokiol on TNF and chemotherapeutic agent-induced apoptosis was examined by the MTT assay.
Series [2] relates to tumor cells isolated from patients with relapsed refractory MM. The series is described as follows: cytotoxicity against patient MM cells (CD38high, flow cytometry). Particulars: 8 ug/ml, 48 h, N=6, mean ±SD. Type of series: cell-based, human. On the procedure:
Assessment of HNK-induced cytotoxicity against patient MM cells: Cytotoxicity of HNK against fresh MM cells was determined as previously determined, see, for example, Mitsiades et al Cancer Cell. 2004; 5:221-230. Fresh MNCs separated from bone marrow samples derived from patients with MM were incubated with PE-conjugated anti-CD138 antibody and/or FITC-conjugated anti-CD38 antibody (BD Biosciences, San Diego, Calif.) for 30 minutes on ice and washed, followed by analysis using EPICS XL flow cytometer (Beckman Coulter, Hialeah, Fla.). A CD38^high fraction enriched for MM cells was determined in side and forward scatter panel in each case. The expression of CD138 on gated cells was also evaluated. After HNK-treatment for 48 h, cells were harvested and percentage of CD38^high cells with or without HNK-treatment was evaluated. […] Cells were stained with propidium iodide (PI; 50 μg/mL; Sigma, St Louis, Mo.), and cell cycle profile was determined by using the program M software on an EPICS XL flow cytometer (Beckman Coulter, Hialeah, Fla.). […] Fluorescence intensity of TUNEL and APO 2.7 staining was determined using on EPICS XL flow cytometer. Cytotoxicity was determined by trypan blue exclusion assay. […] Cell growth and induction of apoptosis were determined both by colorimetric assay and now cytometric detection of APO2.7 after 48 h treatment. […] DNA synthesis was measured by [^3H]-thymidine uptake. […]

The test system of series [3] is BMSCs. In kind it is cell-based, human. On the procedure: MNCs in BM specimens were also used to establish long-term bone marrow stromal cell (BMSC) cultures, as described in, for example, Uchiyama et al Blood. 1993; 82:3712-3720 and Hideshmia et al Oncogene. 2001; 20:4519-4527.
Reagents: Honokiol (HNK; Calbiochem, San Diego, Calif.) was dissolved in ethanol at 20 mg/ml stock solution. Recombinant human interleukin-6 (IL-6), vascular endothelial growth factor (VEGF) and insulin-like growth factor-1 (IGF-1) (R&D Systems, Minneapolis, Minn.) were reconstituted with sterile PBS containing 0.1% FBS (IL-6 and VEGF) and 10 mM of acetic acid containing 0.1% FBS (IGF-1), respectively. Pan-caspase inhibitor z-VAD-fmk (Bachem, Bubendorf, Switzerland) was dissolved in methanol. These reagents were stored at −20° C. and diluted by media just before the use. Doxorubicin (Sigma, St Louis, Mo.) was dissolved in sterile water at the concentration of 3.45 mM. As2O3 (5 mM in PBS) was provided by Cell Therapeutics Inc. (Seattle, Wash.). […] Absorbance readings at a wavelength of 450 nm were taken on a spectrophotometer (Molecular Devices Corp., Sunnyvale, Calif.).
The effect of HNK on MM cells in the presence of exogenous IL-6 and IGF-1, as well as BMSCs was evaluated. […] DNA synthesis was determined by measuring [^3H]-thymidine incorporation during the last 8 h of 48 h cultures. […]

Take `C=CCc1ccc(O)c(-c2ccc(O)c(CC=C)c2)c1` [HNK, Honokiol]: in series [1], the “cytotoxic effects of TNF and chemotherapeutic agents (MTT)” value is “enhanced the cytotoxic effects of TNF, paclitaxel, and doxorubicin”. Also, the “percentage of CD38high cells compared to control cultures” value in series [2] came out at 26.2±15.8%. Besides, the “viability of BMSCs” value in series [3] is “did not affect the viability of BMSCs”.
